Data published in US10307353B2, “1-phenylmono- or -polyhydroxypropane compounds, compositions and cosmetic uses thereof” (L'OREAL, priority 2015, dated 2019).

Test system: AMPK (phospho-AMPK Thr-172)
Test: Level of expression of p-AMPK (Thr-172) in normal human epidermal keratinocytes, Western blotting
Format: cell-based
Conditions: for p-AMPK/AMPK ratio relative to the control (100%): 18 hours incubation; for p-AMPK/GAPDH ratio relative to the control (100%): 48 hours incubation
Protocol: Normal human epidermal keratinocytes are seeded at 180 000 cells per well and cultured in SFM culture medium (supplier Gibco) supplemented with 0.25 ng/ml EGF, 25 μg/ml of pituitary extract and 25 μg/ml gentamicin, up to confluence, and incubated in a humid oven at 37° C. and 5% CO2. The culture medium was then replaced with test medium (SFM (Gibco) supplemented with 25 μg/ml gentamicin) containing or not containing (control) the test compounds, or the references (AICAR—(5-amino-4-imidazole carboxamide riboside) at 500 μM). The cells were then incubated for 18 or 48 hours. The level of expression of p-AMPK was analyzed by Western blotting. At the end of the incubation, the proteins were extracted and quantified and then separated by electrophoresis on 10% polyacrylamide gel and then transferred onto a nitrocellulose membrane. […] Between each successive revelation, the antibodies were detached using a “stripping” buffer. The images were acquired with a Fuji LAS 3000 chemiluminescence scanner (Fujifilm) and the densitometric analyses were performed using the Multigauge software (Fujifilm). An increase in the phosphorylated form of AMPK (active form of the enzyme) relative to the control is evaluated in this test. Results Expressed in the form of the p-AMPK/GAPDH ratio relative to the control (100%): […]

Compound | p-AMPK/AMPK ratio relative to the control (100%) (500 μM) | p-AMPK/GAPDH ratio relative to the control (100%) (500 μM) [%] | p-AMPK/GAPDH ratio relative to the control (100%) (1 μM) [%] | p-AMPK/GAPDH ratio relative to the control (100%) (10 μM) [%] | p-AMPK/GAPDH ratio relative to the control (100%) (100 μM) [%]
NC(=O)c1ncn([C@@H]2O[C@H](CO)[C@@H](O)[C@H]2O)c1N [AICAR, 5-amino-4-imidazole carboxamide riboside, reference compound] | 177% ± 31% | 279 ± 96 | – | – | –
COc1cc(CC(C)O)ccc1O (stereo not drawn) [Compound 1] | 132% ± 11% | – | – | – | –
COc1cc(CC(O)CO)ccc1O (stereo not drawn) [Compound 5] | – | – | 116 ± 17 | 149 ± 25 | 136 ± 14
